Laboratory results from patent publication US20220089663A1, “PROTEINS AND FLUOROPHORE-CONTAINING COMPOUNDS SELECTIVE FOR NaV1.7” (MEMORIAL SLOAN KETTERING CANCER CENTER, priority 2019, published 2022).

Tests used:
mouse sciatic nerves = test: epifluorescence imaging (IVIS Spectrum) of sciatic nerves and organs 30 min after injection; assay type: in vivo; conditions: 30 minutes after systemic injection
Description: Animal Model. Female athymic nude mice (4-8 week-old, athymic-Nude (outbred) (Stock #: 088; Envigo, USA) were allowed to acclimatize at the Memorial Sloan Kettering Cancer Center (MSK) vivarium for 1 week with ad libitum food and water prior to the experimental procedure. For imaging experiments, animals were sacrificed 30 min post-tail vein injection of Hs1a-FL, Hs1a/Hs1a-FL, Hsp1a-FL, Hsp1a/Hsp1a-FL, or PBS. All animal experiments were performed in accordance with institutional guidelines and approved by the IACUC of MSK, following NIH guidelines for animal welfare.
Epifluorescence Imaging. Animals were intravenously injected with Hsp1a-FL (7 nmol, 68 μM of Hsp1a-FL in 100 μL of PBS, n=9), or Hs1a-FL (4 nmol, 45 μM of Hs1a-FL in 100 μL of PBS, n=3). To assess the specificity of the Hsp1a-FL or Hs1a-FL accumulation, animals were injected with a combination of Hsp1a and Hsp1a-FL (Hsp1a-FL, 68 μM, 7 nmol and Hsp1a 204 μM, 21 nmol in 100 μL PBS, n=9), Hs1a and Hs1a-FL (Hs1a-FL, 45 μM, 4 nmol and Hs1a, 120 μM, 12 nmol in 100 μL PBS, n=3) or PBS (n=9). Animals were sacrificed 30 min post-injection and epifluorescence images obtained. Epifluorescence images of the right sciatic nerve (RSN) and the left sciatic nerve (LSN) were obtained in situ. Epifluorescence of the biodistribution of the peptides in excited RSN, LSN, muscle, heart, kidney, liver, and brain were acquired with IVIS Spectrum (PerkinElmer) using a predefined GFP filterset (e.g., excitation=465/30 nm, emission=520-580 nm) based on the particular fluorophore employed in the compounds. Autofluorescence was removed through spectral unmixing. Semiquantitative analysis of the Hsp1a-FL or Hs1a-FL signal was conducted by measuring the average radiant efficiency (in units of unit [p/s/cm^2/sr]/[μW/cm^2]) in regions of interest (ROIs) that were placed on all resected organs under white light guidance.

[1] = 10 μM, human serum, 37° C.
in vitro = conditions: human, serum
hNav1.7 = target: T1, hNav1.7 (Homo sapiens, UniProt Q15858); test: automated whole-cell patch clamp (QPatch 16X), HEK293-hNav1.7; assay type: cell-based
T1 construct: host or cells: HEK293
T1 sequence (Q15858 whole entry): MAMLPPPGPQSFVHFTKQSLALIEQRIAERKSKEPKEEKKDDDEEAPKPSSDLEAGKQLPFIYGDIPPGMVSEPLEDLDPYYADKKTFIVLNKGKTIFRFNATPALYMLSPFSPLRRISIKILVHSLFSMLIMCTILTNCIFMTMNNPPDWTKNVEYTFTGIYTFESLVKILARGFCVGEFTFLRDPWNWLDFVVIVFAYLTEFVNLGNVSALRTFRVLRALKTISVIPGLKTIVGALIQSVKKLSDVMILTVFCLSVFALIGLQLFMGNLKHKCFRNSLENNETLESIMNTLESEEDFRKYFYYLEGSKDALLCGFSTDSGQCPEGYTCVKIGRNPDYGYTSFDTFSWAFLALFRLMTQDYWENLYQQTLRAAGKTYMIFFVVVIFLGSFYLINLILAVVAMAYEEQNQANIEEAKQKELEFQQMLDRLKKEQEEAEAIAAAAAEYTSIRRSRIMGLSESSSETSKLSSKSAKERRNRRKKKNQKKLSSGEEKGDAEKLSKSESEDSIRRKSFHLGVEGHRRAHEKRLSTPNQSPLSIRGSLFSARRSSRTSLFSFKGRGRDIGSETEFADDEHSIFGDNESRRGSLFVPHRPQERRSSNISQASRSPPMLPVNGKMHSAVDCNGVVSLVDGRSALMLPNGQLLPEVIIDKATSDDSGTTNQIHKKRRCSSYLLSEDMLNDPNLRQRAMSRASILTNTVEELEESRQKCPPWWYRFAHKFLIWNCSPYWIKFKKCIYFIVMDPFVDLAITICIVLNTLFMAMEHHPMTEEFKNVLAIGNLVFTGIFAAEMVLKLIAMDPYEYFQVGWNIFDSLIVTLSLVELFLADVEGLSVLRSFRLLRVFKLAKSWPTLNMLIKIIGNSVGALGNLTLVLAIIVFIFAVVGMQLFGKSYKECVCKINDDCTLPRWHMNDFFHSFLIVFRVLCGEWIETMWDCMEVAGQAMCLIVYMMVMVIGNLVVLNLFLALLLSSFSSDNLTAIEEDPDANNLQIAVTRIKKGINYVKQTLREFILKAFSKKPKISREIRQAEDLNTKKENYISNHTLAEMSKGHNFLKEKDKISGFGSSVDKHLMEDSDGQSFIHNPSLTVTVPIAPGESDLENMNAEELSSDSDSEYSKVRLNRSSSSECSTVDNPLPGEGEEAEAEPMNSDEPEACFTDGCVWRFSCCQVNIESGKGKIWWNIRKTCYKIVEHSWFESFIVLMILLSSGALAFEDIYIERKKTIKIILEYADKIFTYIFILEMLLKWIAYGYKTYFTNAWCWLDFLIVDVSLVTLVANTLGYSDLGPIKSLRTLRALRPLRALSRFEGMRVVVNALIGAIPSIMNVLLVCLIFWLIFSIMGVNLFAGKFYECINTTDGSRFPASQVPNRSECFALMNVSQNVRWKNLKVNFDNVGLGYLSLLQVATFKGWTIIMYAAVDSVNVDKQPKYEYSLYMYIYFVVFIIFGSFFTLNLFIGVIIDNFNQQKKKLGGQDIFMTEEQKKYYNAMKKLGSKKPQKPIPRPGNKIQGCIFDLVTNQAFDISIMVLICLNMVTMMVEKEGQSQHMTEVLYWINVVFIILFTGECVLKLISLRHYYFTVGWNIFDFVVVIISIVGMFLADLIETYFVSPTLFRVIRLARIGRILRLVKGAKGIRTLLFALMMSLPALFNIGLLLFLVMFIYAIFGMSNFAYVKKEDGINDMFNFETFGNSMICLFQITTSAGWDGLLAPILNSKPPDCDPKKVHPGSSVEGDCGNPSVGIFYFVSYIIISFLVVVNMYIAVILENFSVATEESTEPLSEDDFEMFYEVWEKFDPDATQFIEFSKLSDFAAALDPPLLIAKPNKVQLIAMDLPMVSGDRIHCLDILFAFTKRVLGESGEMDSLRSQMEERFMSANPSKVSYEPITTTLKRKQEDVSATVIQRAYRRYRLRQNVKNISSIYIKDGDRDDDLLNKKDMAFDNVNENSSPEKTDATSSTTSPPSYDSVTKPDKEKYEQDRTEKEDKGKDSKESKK
T1 sequence (Q07699 19-218, further chain): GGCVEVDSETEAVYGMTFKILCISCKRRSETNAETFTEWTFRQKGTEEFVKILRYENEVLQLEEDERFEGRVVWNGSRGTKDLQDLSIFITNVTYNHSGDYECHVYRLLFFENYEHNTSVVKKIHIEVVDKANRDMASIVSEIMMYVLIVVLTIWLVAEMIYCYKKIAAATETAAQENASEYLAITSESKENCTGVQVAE

[2] = acute in vivo toxicity after intravenous injection; design: species or system mouse
Description: Acute in vivo toxicity. All animal experiments were performed in accordance with protocols approved by the Institutional Animal Care and Use Committee of MSK and followed the National Institute of Health guidelines for animal welfare. Six athymic nude mice 6-8 weeks old were purchased from Envigo RMS, Inc. An intravenous (IV) catheter was placed in tail vein of each mouse and they were anesthetized using Isoflurane (Novaplus, Telangana-India). Anesthesia was maintained using 1.0 to 1.5 L/min of Isoflurane and 2 L/min of oxygen. Three animals were injected with 68 μM, 7 nmol Hsp1a-FL in 100 μL of PBS, and the other three with […], of PBS. Animals were monitored using a rodent surgical monitor (Indus instruments, Houston, Tex.) before, during, and up to 16 minutes after injection. Numeric data points represent averaged values of 5±1 seconds duration. Data was collected before injection, 15 seconds after injection, 5 minutes after injection and 15 minutes after injection. Mouse body core temperature was measured by placing a rectal probe and electronically regulated via a surgical platform. The high-resolution electrocardiogram (EKG) was measured by placing non-invasive electrodes on the 4 paws and electrical contact was assured using a conducting gel (Electrode cream, Indus instruments, Houston, Tex.). Heart rate was automatically calculated from the R-R peaks derived from the EKG signal. Peripheral capillary oxygen saturation (SpO2) was non-invasively measured by placing a clip sensor on the animal's left thigh.
Statistical Analysis. Data were statistically analyzed by generalized estimating equations followed by LSD post hoc test when appropriate using SPSS 23.0. During animal toxicity studies, data points representing loss of signal were excluded from the analysis. Loss of signal was defined by a brief contact loss between the monitoring equipment and the mice (creating a “false” zero or −1 result). Loss of signal was corrected by placing the electrode in close contact to the mice. Average and standard deviations were calculated for each mouse.
Unless otherwise stated, data points represent mean values and error bars represent the standard deviation of biological replicates (mean±SEM). All p-values were calculated using a Student's unpaired t-test. Statistical significance was considered for p-values<0.05 and as follows: ns=not significant, *p<0.05, **p<0.01, ***p<0.001. Mann-Whitney tests were used for analysis of the unpaired samples (e.g. vital signs in mice injected with Hsp1a and mice from the control group) and the Wilcoxon test was used for analysis of paired samples (e.g. vital signs from same mouse before and after injection). Statistical significance was determined with alpha=0.05. Analysis and figures were prepared in GraphPad Prism 8.

YCQK(IR-800)FLWTCDSERPCCEGLVCRLWCKIN-NH2 (N-terminal YCQK(IR-800) extension; C-terminal amide) [Hsp1a-IR800]
biodistribution in various tissues (mouse sciatic nerves): limited to the peripheral nervous system

CC[C@H](C)[C@@H]1NC(=O)[C@H](CCCNC(=N)N)NC(=O)[C@H](CC(=O)O)NC(=O)[C@H](CCSC)NC(=O)[C@H](CCCNC(=N)N)NC(=O)CNC(=O)CNC(=O)[C@H](Cc2ccccc2)NC(=O)[C@@H](NC(=O)[C@H](CO)NC(=O)[C@H](CO)NC(=O)[C@H](CCCNC(=N)N)NC(=O)[C@H](CCCNC(=N)N)NC(=O)[C@H](CC(C)C)NC(=O)[C@@H](N)CO)CSSC[C@@H](C(=O)N[C@@H](CC(N)=O)C(=O)N[C@@H](CO)C(=O)N[C@@H](Cc2ccccc2)C(=O)N[C@@H](CCCNC(=N)N)C(=O)N[C@@H](Cc2ccc(O)cc2)C(=O)O)NC(=O)CNC(=O)[C@H](CC(C)C)NC(=O)CNC(=O)[C@H](CO)NC(=O)[C@H](CCC(N)=O)NC(=O)[C@H](C)NC(=O)CNC1=O [hANP, reference compound]
time of incubation in which degraded [1]: 1 to 2 h

CSCC[C@@H]1NC(=O)[C@H](CC(C)C)NC(=O)[C@H](CCCNC(=N)N)NC(=O)[C@H](CO)NC(=O)[C@@H]2CSSC[C@@H]3NC(=O)[C@H](CO)NC(=O)CNC(=O)[C@H]([C@@H](C)O)NC(=O)[C@H](CSSC[C@H](N)C(=O)N[C@@H](CCCCN)C(=O)NCC(=O)N[C@@H](CCCCN)C(=O)NCC(=O)N[C@@H](C)C(=O)N[C@@H](CCCCN)C(=O)N2)NC(=O)[C@H](CSSC[C@@H](C(N)=O)NC(=O)[C@H](CCCCN)NC(=O)CNC(=O)[C@H](CO)NC(=O)[C@H](CCCNC(=N)N)NC3=O)NC(=O)[C@H](CC(=O)O)NC(=O)[C@H](Cc2ccc(O)cc2)NC1=O [MVIIA]
remaining at 24 h (in vitro): 50%

YCQK(CY7.5)FLWTCDSERPCCEGLVCRLWCKIN-NH2 (N-terminal YCQK(CY7.5) extension; C-terminal amide) [Hsp1a-CY7.5]
biodistribution in various tissues (mouse sciatic nerves): limited to the peripheral nervous system

YCQK(DY-684)FLWTCDSERPCCEGLVCRLWCKIN-NH2 (N-terminal YCQK(DY-684) extension; C-terminal amide) [Hsp1a-DY-684]
biodistribution in various tissues (mouse sciatic nerves): limited to the peripheral nervous system

YCQK(BODIPY665)FLWTCDSERPCCEGLVCRLWCKIN-NH2 (N-terminal YCQK(BODIPY665) extension; C-terminal amide) [Hsp1a-BODIPY665]
biodistribution in various tissues (mouse sciatic nerves): limited to the peripheral nervous system

CC[C@H](C)[C@H](NC(=O)[C@H](CCCCN)NC(=O)[C@@H]1CSSC[C@@H]2NC(=O)[C@@H]3CCCN3C(=O)[C@H](CCCNC(=N)N)NC(=O)[C@H](CCC(=O)O)NC(=O)[C@H](CO)NC(=O)[C@H](CC(=O)O)NC(=O)[C@@H]3CSSC[C@H](NC(=O)[C@H](C(C)C)NC(=O)[C@H](CC(C)C)NC(=O)CNC(=O)[C@H](CCC(=O)O)NC(=O)[C@H](CSSC[C@H](NC(=O)[C@@H](N)Cc4ccc(O)cc4)C(=O)N[C@@H](CCC(N)=O)C(=O)N[C@@H](CCCCN)C(=O)N[C@@H](Cc4ccccc4)C(=O)N[C@@H](CC(C)C)C(=O)N[C@@H](Cc4c[nH]c5ccccc45)C(=O)N[C@@H]([C@@H](C)O)C(=O)N3)NC2=O)C(=O)N[C@@H](CCCNC(=N)N)C(=O)N[C@@H](CC(C)C)C(=O)N[C@@H](Cc2c[nH]c3ccccc23)C(=O)N1)C(=O)N[C@@H](CC(N)=O)C(N)=O [Hsp1a]
pIC50 difference to sHsp1a on hNav1.7 (hNav1.7): no significant pIC50s difference | IC50 (hNav1.7; HEK293 cells stably expressing human channel, read-out: IC50 Nav1.7): 13 nM | average core temperature ([2]; 15 seconds post injection): 34.5 °C | average core temperature ([2]; 5 min post-injection): 34.6 °C | average core temperature ([2]; 15 minutes post-injection): 34.6 °C | EKG pattern ([2]; before and up to 16 minutes after injection): No changes were observed

YCQK(Jane1ia669)FLWTCDSERPCCEGLVCRLWCKIN-NH2 (N-terminal YCQK(Janelia669) extension; C-terminal amide) [Hsp1a-Janelia669]
biodistribution in various tissues (mouse sciatic nerves): limited to the peripheral nervous system
